Assays:
Test in all cases: relative viability (nuclei count vs DMSO), 5 days (fraction); higher = more cells survive
[1] = compound: CC1=NC=CC(=C1)C2=CC=C(C=C2)CC(=O)NC3=CC=C(C=C3)C4=CN=CC=C4 [Wnt-C59] + O=C(c1cc(Cc2n[nH]c(=O)c3ccccc23)ccc1F)N1CCN(C(=O)C2CC2)CC1 [Olaparib] (partner 8 µM)
Outline: (§1)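 The day after seeding in 1536-well plates, lung cancer cell lines were treated by pin tool with a single drug, or with a fixed anchor-drug dose together with five library-drug doses (not always all listed) in √10 steps. After 5 days, a combined fix-and-stain solution (final 0.05% Triton X-100, 1% formaldehyde, 1 ug/ml Hoechst) was added. Nuclei counted on 4× images gave relative viability as treated counts over vehicle counts, reported as the median of duplicate plates.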

[2] = compound: CC1=NC=CC(=C1)C2=CC=C(C=C2)CC(=O)NC3=CC=C(C=C3)C4=CN=CC=C4 [Wnt-C59] + CC(=O)Nc1cccc(-n2c(=O)n(C3CC3)c(=O)c3c(Nc4ccc(I)cc4F)n(C)c(=O)c(C)c32)c1 [Trametinib] (partner 0.02 µM)
Outline: as §1

[3] = compound: CS(=O)(=O)CCNCc1ccc(-c2ccc3ncnc(Nc4ccc(OCc5cccc(F)c5)c(Cl)c4)c3c2)o1 [Lapatinib] + CC(=O)Nc1cccc(-n2c(=O)n(C3CC3)c(=O)c3c(Nc4ccc(I)cc4F)n(C)c(=O)c(C)c32)c1 [Trametinib] (partner 0.02 µM)
Outline: as §1

UMC-11
relative viability ([1]; first compound 0.001 µM): 0.793 | relative viability ([1]; first compound 0.01 µM): 0.378 | relative viability ([1]; first compound 0.03162 µM): 0.479 | relative viability ([1]; first compound 0.1 µM): 0.415 | relative viability ([2]; first compound 0.001 µM): 0.654 | relative viability ([2]; first compound 0.01 µM): 0.812 | relative viability ([2]; first compound 0.03162 µM): 0.698 | relative viability ([2]; first compound 0.1 µM): 0.758 | relative viability ([3]; first compound 0.02 µM): 0.293 | relative viability ([3]; first compound 0.06325 µM): 0.617 | relative viability ([3]; first compound 0.2 µM): 0.69 | relative viability ([3]; first compound 0.6325 µM): 0.76 | relative viability ([3]; first compound 2 µM): 0.676

— the supplement of paper PMC10307832
